This note sets out measurements from US12319672B2, “Alpha-D-galactopyranoside derivatives” (Idorsia Pharmaceuticals Ltd, priority 2019, dated 2025).

Structures are written as SMILES.

For one assay, the target named is human Gal-1 (hGal-1). The assay can be described thus: Competitive binding assay: binding of biotinylated hGal-1 to microplate-adsorbed asialofetuin (ASF). Conditions: Activities on hGal-1; mean values of several measurements. Put shortly:
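For hGal-1, a variant with all six cysteines replaced by serines is preferred. Either galectin, biotinylated at 300-1000 ng/mL, competes with compound for microplate-bound ASF over 3 h at 4° C; peroxidase/ABTS detection gives IC50, averaged.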

A further assay deals with human Gal-3 (hGal-3) (Homo sapiens (Human), UniProt P17931). The assay can be described thus: Competitive binding assay: binding of biotinylated hGal-3 to microplate-adsorbed asialofetuin (ASF). Conditions: Activity on hGal-3; mean values of several measurements. The essentials:
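Spectrophotometric readout (streptavidin-peroxidase, ABTS) of biotinylated galectin retained on ASF-coated wells. Biotinylated hGal-1 or hGal-3, 300-1000 ng/mL, co-incubated with test compound 3 h at 4° C, then washed. Mean IC50 from repeat runs.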

human Gal-1 (hGal-1), sequence (P09382 2-135 limits assumed): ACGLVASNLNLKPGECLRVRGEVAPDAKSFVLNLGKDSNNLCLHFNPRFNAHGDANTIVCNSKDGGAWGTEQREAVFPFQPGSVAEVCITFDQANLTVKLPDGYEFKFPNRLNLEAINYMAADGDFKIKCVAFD
human Gal-3 (hGal-3), sequence (P17931 whole entry): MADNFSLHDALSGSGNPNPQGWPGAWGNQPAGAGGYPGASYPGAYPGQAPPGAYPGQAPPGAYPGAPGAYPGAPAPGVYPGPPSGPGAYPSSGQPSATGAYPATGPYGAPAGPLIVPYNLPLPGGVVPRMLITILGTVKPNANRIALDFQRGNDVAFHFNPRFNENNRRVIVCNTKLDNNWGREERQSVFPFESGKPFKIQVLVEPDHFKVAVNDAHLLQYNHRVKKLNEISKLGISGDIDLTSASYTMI

As to `CO[C@@H]1[C@@H](n2cc(-c3cc(F)c(F)c(F)c3)nn2)[C@@H](O)[C@@H](CO)O[C@@H]1Cc1cc(C(C)(C)C)no1` [Ex 1.206], the figures for the IC50 at human Gal-1 (hGal-1) and on human Gal-3 (hGal-3) were 1340 nM and 83 nM, respectively.
For `CO[C@@H]1[C@@H](n2cc(-c3cc(F)c(F)c(F)c3)nn2)[C@@H](O)[C@@H](CO)O[C@@H]1Cc1cc(C(C)(C)CO)no1` [Ex 1.207], in that order: 1160 nM and 110 nM.
With `CCOC(=O)CC(C)(C)c1cc(C[C@H]2O[C@H](CO)[C@H](O)[C@H](n3cc(-c4cc(F)c(F)c(F)c4)nn3)[C@H]2OC)on1` [Ex 1.208], the results for the IC50 on human Gal-1 (hGal-1) and on human Gal-3 (hGal-3) were 1640 nM and 130 nM, respectively.
Taken in the same sequence, the figures for `CO[C@@H]1[C@@H](n2cc(-c3cc(F)c(F)c(F)c3)nn2)[C@@H](O)[C@@H](CO)O[C@@H]1Cc1cc(C2(OC)CCCC2)no1` [Ex 1.209] were 3660 nM and 260 nM.
Taken in the same sequence, the figures for `CO[C@@H]1[C@@H](n2cc(-c3cc(F)c(F)c(F)c3)nn2)[C@@H](O)[C@@H](CO)O[C@@H]1Cc1cc(C2(OC)CCCCC2)no1` [Ex 1.210] were 2730 nM and 290 nM.
Taken in the same sequence, the figures for `CO[C@@H]1[C@@H](n2cc(-c3cc(F)c(F)c(F)c3)nn2)[C@@H](O)[C@@H](CO)O[C@@H]1Cc1cc(C2(C)COC2)no1` [Ex 1.211] were 450 nM and 94 nM.
For `CCC1(c2cc(C[C@H]3O[C@H](CO)[C@H](O)[C@H](n4cc(-c5cc(F)c(F)c(F)c5)nn4)[C@H]3OC)on2)COC1` [Ex 1.212], the 50% inhibitory concentration (IC50) on human Gal-1 (hGal-1) is 1600 nM; at human Gal-3 (hGal-3), 160 nM.
Taken in the same sequence, the figures for `CO[C@@H]1[C@@H](n2cc(-c3cc(F)c(F)c(F)c3)nn2)[C@@H](O)[C@@H](CO)O[C@@H]1Cc1cc(C2(F)CC2)no1` [Ex 1.213] were 1550 nM and 160 nM.
Take `CO[C@@H]1[C@@H](n2cc(-c3cc(F)c(F)c(F)c3)nn2)[C@@H](O)[C@@H](CO)O[C@@H]1Cc1cc(C2(C(F)F)CC2)no1` [Ex 1.214]: the IC50 amounted to 920 nM at human Gal-1 (hGal-1) and 130 nM at human Gal-3 (hGal-3).
For `CO[C@@H]1[C@@H](n2cc(-c3cc(F)c(F)c(F)c3)nn2)[C@@H](O)[C@@H](CO)O[C@@H]1Cc1cc(C2(C)CC2)no1` [Ex 1.215], in that order: 610 nM and 100 nM.
Taken in the same sequence, the figures for `CO[C@@H]1[C@@H](n2cc(-c3cc(F)c(F)c(F)c3)nn2)[C@@H](O)[C@@H](CO)O[C@@H]1Cc1cc(C(C)(C)NC(=O)OC(C)(C)C)no1` [Ex 1.216] were 3970 nM and 340 nM.
Taken in the same sequence, the figures for `CO[C@@H]1[C@@H](n2cc(-c3cc(F)c(F)c(F)c3)nn2)[C@@H](O)[C@@H](CO)O[C@@H]1Cc1cc(C(C)(C)N)no1` [Ex 1.217] were 2030 nM and 180 nM.
For the compound `CO[C@@H]1[C@@H](n2cc(-c3cc(F)c(F)c(Cl)c3)nn2)[C@@H](O)[C@@H](CO)O[C@@H]1Cc1cc(C2CCCCC2)on1` [Ex 1.218], the IC50 was found to be 10600 nM on human Gal-1 (hGal-1) and 420 nM at human Gal-3 (hGal-3).
For `CO[C@@H]1[C@@H](n2cc(-c3cc(F)c(F)c(Cl)c3)nn2)[C@@H](O)[C@@H](CO)O[C@@H]1Cc1cc(C2CCN(C(C)=O)CC2)on1` [Ex 1.219], in that order: 430 nM and 23 nM.
Taken in the same sequence, the figures for `CCOC(=O)N1CCC(c2cc(C[C@H]3O[C@H](CO)[C@H](O)[C@H](n4cc(-c5cc(F)c(F)c(Cl)c5)nn4)[C@H]3OC)no2)CC1` [Ex 1.220] were 570 nM and 35 nM.
For `CO[C@@H]1[C@@H](n2cc(-c3cc(F)c(F)c(Cl)c3)nn2)[C@@H](O)[C@@H](CO)O[C@@H]1Cc1cc(C(C)(C)C)on1` [Ex 1.221], in that order: 980 nM and 160 nM.
Regarding `CO[C@@H]1[C@@H](n2cc(-c3cc(F)c(F)c(F)c3)nn2)[C@@H](O)[C@@H](CO)O[C@@H]1Cc1cc(C2CCCC2)no1` [Ex 1.222], the figures for the IC50 on human Gal-1 (hGal-1) and at human Gal-3 (hGal-3) were 8000 nM and 110 nM, respectively.

Broadly, the IC50 is the concentration needed to halve the response being measured. Lower therefore signals greater potency.
